Reference: ChEMBL document CHEMBL4007386, “Design, synthesis of allosteric peptide activator for human SIRT1 and its biological evaluation in cellular model of Alzheimer's disease” (Eur J Med Chem, 2017)
Activity calls are given as the source filed them. The calls are words filed in the database; no cut-off is given here. Where a SMILES comes first, the peptide text is derived from it.

Tests used:
[1] = target: T1, NAD-dependent protein deacetylase sirtuin-1 (Homo sapiens) (UniProt Q96EB6); test: Activation of SIRT1 in Alzheimer's disease patient serum assessed as increase in deacetylation of SIRT1 substrate peptide at 5 mM preincubated for 1 hr followed by substrate addition measured after 1 hr by fluorescence spectroscopic method
T1 sequence (whole entry): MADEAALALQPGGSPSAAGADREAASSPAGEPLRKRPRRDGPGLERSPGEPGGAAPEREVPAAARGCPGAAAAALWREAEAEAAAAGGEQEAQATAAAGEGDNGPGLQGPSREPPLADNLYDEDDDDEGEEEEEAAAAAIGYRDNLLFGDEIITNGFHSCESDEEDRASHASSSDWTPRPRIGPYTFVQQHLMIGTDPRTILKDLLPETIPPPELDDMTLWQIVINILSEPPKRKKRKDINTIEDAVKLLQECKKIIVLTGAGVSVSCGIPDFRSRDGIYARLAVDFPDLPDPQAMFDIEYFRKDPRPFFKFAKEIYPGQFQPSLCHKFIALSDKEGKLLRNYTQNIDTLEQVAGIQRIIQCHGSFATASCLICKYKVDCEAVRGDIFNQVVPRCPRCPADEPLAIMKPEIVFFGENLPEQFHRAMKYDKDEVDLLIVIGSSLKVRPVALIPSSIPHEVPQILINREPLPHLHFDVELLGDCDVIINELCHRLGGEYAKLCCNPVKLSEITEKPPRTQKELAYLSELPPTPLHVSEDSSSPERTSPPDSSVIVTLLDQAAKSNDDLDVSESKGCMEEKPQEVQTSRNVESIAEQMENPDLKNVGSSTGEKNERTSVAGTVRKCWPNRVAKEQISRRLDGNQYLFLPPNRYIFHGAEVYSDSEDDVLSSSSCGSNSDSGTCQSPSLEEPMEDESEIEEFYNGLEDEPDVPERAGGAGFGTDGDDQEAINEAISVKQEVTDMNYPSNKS

[2] = target: T1, NAD-dependent protein deacetylase sirtuin-1 (Homo sapiens); test: Activation of SIRT1 (unknown origin) expressed in bacterial expression system assessed as increase in enzyme activity at 100 uM using Fluorophore labeled-Arg-His-Lys-Lys (Ac) as substrate incubated for 30 mins in presence of NAD+ by fluorimetric method relative to control
[3] = target: T1, NAD-dependent protein deacetylase sirtuin-1 (Homo sapiens); test: Activation of SIRT1 (unknown origin) expressed in bacterial expression system assessed as increase in enzyme activity at 105 uM using Fluorophore labeled-Arg-His-Lys-Lys (Ac) as substrate incubated for 30 mins in presence of NAD+ by fluorimetric method relative to control
[4] = target: T1, NAD-dependent protein deacetylase sirtuin-1 (Homo sapiens); test: Activation of SIRT1 (unknown origin) expressed in bacterial expression system assessed as increase in enzyme activity at >145 uM using Fluorophore labeled-Arg-His-Lys-Lys (Ac) as substrate incubated for 30 mins in presence of NAD+ by fluorimetric method
[5] = target: T1, NAD-dependent protein deacetylase sirtuin-1 (Homo sapiens); test: Activation of SIRT1 (unknown origin) expressed in bacterial expression system assessed as increase in enzyme activity using Fluorophore labeled-Arg-His-Lys-Lys (Ac) as substrate incubated for 30 mins in presence of NAD+ by fluorimetric method
[6] = target: T1, NAD-dependent protein deacetylase sirtuin-1 (Homo sapiens); test: Activation of SIRT1 in Alzheimer's disease patient serum assessed as increase in deacetylation of SIRT1 substrate peptide at 1.5 to 3 mM preincubated for 1 hr followed by substrate addition measured after 1 hr by fluorescence spectroscopic method relative to control
[7] = target: T2, NAD-dependent protein deacetylase sirtuin-2 (Homo sapiens) (UniProt Q8IXJ6); test: Activity at SIRT2 in Alzheimer's disease patient serum assessed as effect on deacetylation of SIRT2 substrate peptide at 1.5 to 3 mM preincubated for 1 hr followed by substrate addition measured after 1 hr by fluorescence spectroscopic method
T2 sequence (whole entry): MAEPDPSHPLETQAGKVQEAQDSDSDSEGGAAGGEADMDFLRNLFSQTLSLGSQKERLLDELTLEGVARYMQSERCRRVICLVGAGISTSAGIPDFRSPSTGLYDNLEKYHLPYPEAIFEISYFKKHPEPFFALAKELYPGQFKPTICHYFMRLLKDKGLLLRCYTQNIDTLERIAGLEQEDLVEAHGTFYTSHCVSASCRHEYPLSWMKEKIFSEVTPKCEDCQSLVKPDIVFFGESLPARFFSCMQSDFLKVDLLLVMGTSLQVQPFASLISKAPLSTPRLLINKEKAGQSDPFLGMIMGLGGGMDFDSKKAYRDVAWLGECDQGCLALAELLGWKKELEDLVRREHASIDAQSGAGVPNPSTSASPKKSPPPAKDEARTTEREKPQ

[8] = target: T1, NAD-dependent protein deacetylase sirtuin-1 (Homo sapiens); test: Allosteric activation of SIRT1 in human IMR32 cells assessed as decrease in acetylation level of K382 residue of p53 after 48 hrs by Western blot method; type: cell-based
[9] = target: T1, NAD-dependent protein deacetylase sirtuin-1 (Homo sapiens); test: Allosteric activation of SIRT1 in human IMR32 cells assessed as decrease in acetylation level of K382 residue of p53 at 160 uM after 48 hrs in presence of SIRT1 inhibitor nicotinamide by Western blot method; type: cell-based
[10] = target: T1, NAD-dependent protein deacetylase sirtuin-1 (Homo sapiens); test: Activation of SIRT1 in human IMR32 cells assessed as protection against amyloid beta (25 to 35)-induced toxicity by measuring cell viability at 10 uM after 48 hrs by MTT assay (reference value: 56.3 +/- 1.2%); type: cell-based
[11] = target: T1, NAD-dependent protein deacetylase sirtuin-1 (Homo sapiens); test: Activation of SIRT1 in human IMR32 cells assessed as protection against amyloid beta (25 to 35)-induced toxicity by measuring cell viability at 20 uM after 48 hrs by MTT assay (reference value: 56.3 +/- 1.2%); type: cell-based
[12] = target: T1, NAD-dependent protein deacetylase sirtuin-1 (Homo sapiens); test: Activation of SIRT1 in human IMR32 cells assessed as protection against amyloid beta (25 to 35)-induced toxicity by measuring cell viability at 40 uM after 48 hrs by MTT assay (reference value: 56.3 +/- 1.2%); type: cell-based
[13] = target: T1, NAD-dependent protein deacetylase sirtuin-1 (Homo sapiens); test: Activation of SIRT1 in human IMR32 cells assessed as protection against amyloid beta (25 to 35)-induced toxicity by measuring cell viability at 80 uM after 48 hrs by MTT assay (reference value: 56.3 +/- 1.2%); type: cell-based

NC(=O)c1cccnc1
Activity [1]: inactive

CC(C)C[C@H](NC(=O)[C@@H](N)CC(N)=O)C(=O)N[C@@H](CCCNC(=N)N)C(=O)O (H-Asn-Leu-Arg-OH)
Activity [2]: 6%

N=C(N)NCCC[C@H](NC(=O)[C@H](Cc1c[nH]c2ccccc12)NC(=O)[C@@H](N)CC(N)=O)C(=O)O (H-Asn-Trp-Arg-OH)
Activity [2]: 24%

N=C(N)NCCC[C@H](NC(=O)[C@H](Cc1ccc(O)cc1)NC(=O)[C@@H](N)CC(N)=O)C(=O)O (H-Asn-Tyr-Arg-OH)
Activity [2]: 4%

N=C(N)NCCC[C@H](NC(=O)[C@H](Cc1c[nH]c2ccccc12)NC(=O)[C@@H](N)CS)C(=O)O (H-Cys-Trp-Arg-OH)
fold change (FC) [3]: 2
Activity [2]: 97%
Activity [4]: Active
EC1.5 [5]: 55 µM
Activity [6]: 21.2%
Activity [7]: inactive
Activity [8]: Dose-dependent effect
Activity [9]: inactive
Activity [10]: 57.1%
Activity [11]: 68%
Activity [12]: 79.8%
Activity [13]: 83.4%

N=C(N)NCCC[C@H](NC(=O)[C@H](Cc1ccc(O)cc1)NC(=O)[C@@H](N)CCC(N)=O)C(=O)O (H-Gln-Tyr-Arg-OH)
Activity [2]: 12%

N[C@@H](Cc1cnc[nH]1)C(=O)N[C@@H](CCC(=O)O)C(=O)N[C@@H](Cc1ccc(O)cc1)C(=O)O (H-His-Glu-Tyr-OH)
Activity [2]: 15%

N=C(N)NCCC[C@H](NC(=O)[C@@H]1CCCN1C(=O)[C@@H](N)Cc1cnc[nH]1)C(=O)O (H-His-Pro-Arg-OH)
Activity [2]: -10%

N=C(N)NCCC[C@H](NC(=O)[C@H](Cc1ccc(O)cc1)NC(=O)[C@@H](N)Cc1cnc[nH]1)C(=O)O (H-His-Tyr-Arg-OH)
Activity [2]: 19%

CC(C)[C@H](NC(=O)[C@@H](N)Cc1cnc[nH]1)C(=O)N[C@@H](CCCNC(=N)N)C(=O)O (H-His-Val-Arg-OH)
Activity [2]: 5%

N=C(N)NCCC[C@H](NC(=O)[C@H](Cc1c[nH]c2ccccc12)NC(=O)[C@@H](N)Cc1ccccc1)C(=O)O (H-Phe-Trp-Arg-OH)
Activity [2]: 28%
